#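 These data come from cells grown in 96-well plates and exposed to compound for 48 hours at five concentrations. The concentration for 50% growth inhibition is given as GI50. TGI is the concentration that stops growth completely.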
# How the values were obtained:
# Experiment in all cases: NCI anticancer screen, dose series, 48 h
# [1] = tested on: SW-620 colon
# [2] = tested on: NCI-H522 lung
# [3] = tested on: IGROV1 ovarian
# [4] = tested on: HOP-92 NSCLC
# [5] = tested on: OVCAR-3 ovarian
# [6] = tested on: CCRF-CEM leukemia
# [7] = tested on: UACC-62 melanoma
# [8] = tested on: MALME-3M melanoma
# [9] = tested on: TK-10 renal
# [10] = tested on: HS 578T breast
SMILES,TGI [1] [µM],TGI [2] [µM],TGI [3] [µM],TGI [4] [µM],TGI [5] [µM],TGI [6] [µM],TGI [7] [µM],TGI [8] [µM],TGI [9] [µM],GI50 [1] [µM],GI50 [2] [µM],GI50 [10] [µM],TGI [10] [µM],GI50 [3] [µM],GI50 [4] [µM],GI50 [5] [µM],GI50 [6] [µM],GI50 [7] [µM],GI50 [9] [µM],GI50 [8] [µM]
OCC1OC(NO)C(O)C(O)C1O (stereo not given),> 100,> 100,> 100,> 100,> 100,> 100,> 100,> 100,> 100,–,–,–,–,–,–,–,–,–,–,–
COc1ccc(C2[C@@H](Cl)C(=O)N2c2ccc(OC)cc2)cc1 (stereo not given in full),> 100,> 100,> 100,39.5,> 100,> 100,> 100,> 100,> 100,–,–,–,–,–,–,–,–,–,–,–
CCCCCCCN(CCCCCCC)C(=N)c1ccc(OC)c2ccccc12,2.24,2.73,2.7,2.02,3.17,3.63,2.77,–,2.88,0.825,1.25,1.56,3.53,1.1,0.603,1.6,1.76,1.34,1.46,–
O=S1(=O)CC#CC[C@@H](CO)[C@@H](CO)CC#CC1,> 100,32.6,> 100,90.3,> 100,98.1,> 100,68.2,> 100,–,–,–,–,–,–,–,–,–,–,–
c1ccc2cc(Cn3c(-c4cccc5ccccc45)[n+](Cc4ccc5ccccc5c4)c4c5ccccc5c5ccccc5c43)ccc2c1,–,–,–,–,–,2.31,1.35,1.45,–,–,–,0.383,2.45,–,–,–,0.362,0.302,–,0.285
CC1=NN(c2ccccc2)C(=O)C1N=Nc1ccc(Br)cc1C (stereo not given),> 100,–,> 100,> 100,> 100,> 100,> 100,> 100,> 100,–,–,–,–,–,–,–,–,–,–,–
CC(C)(C)c1cc([Si](C)(C)C)c(C#N)c([Si](C)(C)C)c1,> 100,> 100,> 100,> 100,> 100,> 100,> 100,> 100,> 100,–,–,–,–,–,–,–,–,–,–,–
O=c1[nH]c(C2CCCCC2)nc2ccc(Cl)cc12,> 100,–,> 100,> 100,> 100,–,> 100,> 100,> 100,–,–,–,–,–,–,–,–,–,–,–
CCn1c(C)nc([N+](=O)[O-])c1Sc1ncc[nH]1,> 100,38.1,> 100,> 100,> 100,58.7,> 100,93.8,> 100,–,–,–,–,–,–,–,–,–,–,–
O=C(Nc1cccc(Cl)c1)Nc1cc(C(F)(F)F)ccc1Cl,10.6,7.7,–,–,7.19,> 100,13.7,–,39.5,3.28,2.14,2.63,8.39,–,–,2.61,3.24,2.8,4.29,–
Cc1ccccc1C1SCc2nc3ccccc3n21 (stereo not given),–,> 100,> 100,49.5,> 100,> 100,> 100,> 100,> 100,–,–,–,–,–,–,–,–,–,–,–
CC1O[C@@H]2CCCCC(=O)[C@]2(C)[C@H]1C (stereo not given in full),> 100,–,> 100,> 100,> 100,> 100,> 100,> 100,> 100,–,–,–,–,–,–,–,–,–,–,–
O=C(NNC(=O)/C(=C/c1cccc([N+](=O)[O-])c1)NC(=O)c1ccccc1)Nc1ccc(Cl)cc1,28.5,25.7,27.4,40.4,25.4,31.2,30.3,30,31.7,–,–,–,–,–,–,–,–,–,–,–
O/N=C1/C(=C/c2ccc(Br)cc2)CCCC1C(NO)c1ccc(Br)cc1 (stereo not given),38.6,32.9,32.4,26.5,31.1,51.2,27.8,31.9,33,–,–,–,–,–,–,–,–,–,–,–
c1ccc2c(c1)CCCc1nnc3nc4ccccc4n3c1-2,24.2,33,> 100,> 100,37.8,> 100,> 100,–,> 100,5.06,12.7,20.5,> 100,2.88,9.53,4.37,3.68,6.54,6.8,–
[N-]=[N+]=NCCCn1c2c(c3ccccc3c1=O)C(=O)c1cc3c(cc1-2)OCO3,> 100,> 100,> 100,> 100,> 100,> 100,> 100,–,> 100,> 100,15.6,> 100,> 100,47.3,28.1,> 100,8.3,26.9,45.3,–
